Measurements as given in BigSolDB 2.1.

c1ccc2cc3ccccc3cc2c1
Settings	solubility (mole fraction)
in DMAc, 293.15 K	0.0083
in DMAc, 298.85 K	0.0113
in DMAc, 303.85 K	0.0142
in DMAc, 308.75 K	0.0159
in DMAc, 313.95 K	0.0185
in DMAc, 319.75 K	0.0215
in DMAc, 324.25 K	0.025
in DMAc, 328.05 K	0.0269
in DMAc, 332.2 K	0.0301
in DMAc, 333.15 K	0.029
in DMAc, 339.35 K	0.0338
in DMAc, 344.95 K	0.0393
in DMAc, 348.45 K	0.0432
in DMAc, 350.3 K	0.0502
in DMAc, 354.55 K	0.0485
in DMAc, 359.25 K	0.0564
in DMF, 293.35 K	0.0042
in DMF, 298.45 K	0.0054
in DMF, 303 K	0.0057
in DMF, 303.15 K	0.0068
in DMF, 308 K	0.0072
in DMF, 308.45 K	0.0086
in DMF, 312.8 K	0.0101
in DMF, 313.21 K	0.0114
in DMF, 313.65 K	0.0104
in DMF, 317.4 K	0.011
in DMF, 318.15 K	0.0127
in DMF, 318.85 K	0.0131
in DMF, 322.8 K	0.0139
in DMF, 323.25 K	0.015
in DMF, 326.28 K	0.0166
in DMF, 329.15 K	0.018
in DMF, 333.15 K	0.0191
in DMF, 334.55 K	0.0211
in DMF, 334.9 K	0.0221
in DMF, 339.75 K	0.0252
in DMF, 345.05 K	0.0292
in DMF, 348.29 K	0.032
in DMF, 349.85 K	0.0336
in DMF, 353.55 K	0.0384
in DMF, 358.85 K	0.0448
in DMF, 359.48 K	0.0452
in NMP, 293.45 K	0.0152
in NMP, 299.15 K	0.0186
in NMP, 303.45 K	0.0217
in NMP, 308.55 K	0.0255
in NMP, 314.05 K	0.0325
in NMP, 317.84 K	0.043
in NMP, 318.15 K	0.0409
in NMP, 324.75 K	0.0455
in NMP, 331.21 K	0.0546
in NMP, 331.25 K	0.0539
in NMP, 335.25 K	0.0591
in NMP, 339.75 K	0.0653
in NMP, 344.55 K	0.0738
in NMP, 349.85 K	0.0804
in NMP, 350.45 K	0.0825
in NMP, 353.55 K	0.0884
